Like-named read-outs stand apart in the source and are kept apart here.
What was measured:
Assay type in all cases: cell-based
TRPML1 = TRPML1 (Homo sapiens, UniProt Q9GZU1); experiment: Fluorescent TRPML1 assay (Fluo4-AM calcium fluorescence in doxycycline-induced HEK-293 Trex cells)
How it was run: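 HEK-293 Trex cells stably carrying human TRPML1 (surface-trafficking mutant) were induced overnight with 0.5 ug/mL doxycycline, loaded with 1 micromolar Fluo4-AM, and suspended in Ringer's with 10 mM calcium. Compounds at 20 micromolar to 6 nanomolar final, half-log steps, triplicate; fluorescence 480/540 nm gave percent activity versus controls and EC50 by non-linear regression.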

TRPML2 = target: T1, TRPML2 (Homo sapiens, UniProt Q8IZK6); experiment: Fluorescent TRPML2 assay (performed as for TRPML1, substituting the TRPML2 subtype)
T1 construct: expressed in transfected cells
T1 sequence (Q8IZK6 1-566): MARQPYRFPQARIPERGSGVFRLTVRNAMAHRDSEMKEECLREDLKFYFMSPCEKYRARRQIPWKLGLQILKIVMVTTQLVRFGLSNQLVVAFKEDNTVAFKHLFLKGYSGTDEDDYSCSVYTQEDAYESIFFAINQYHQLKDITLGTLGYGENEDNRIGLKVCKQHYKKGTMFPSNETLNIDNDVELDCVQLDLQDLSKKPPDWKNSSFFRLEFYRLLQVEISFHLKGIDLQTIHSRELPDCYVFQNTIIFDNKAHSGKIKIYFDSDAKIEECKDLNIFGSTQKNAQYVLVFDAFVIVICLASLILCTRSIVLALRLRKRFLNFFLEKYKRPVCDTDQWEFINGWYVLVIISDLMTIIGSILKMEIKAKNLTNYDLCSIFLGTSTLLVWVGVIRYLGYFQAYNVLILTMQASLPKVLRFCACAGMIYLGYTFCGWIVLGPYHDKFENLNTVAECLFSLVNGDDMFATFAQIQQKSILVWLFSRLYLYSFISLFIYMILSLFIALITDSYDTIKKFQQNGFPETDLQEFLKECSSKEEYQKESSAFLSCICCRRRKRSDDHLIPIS
How it was run: (§1)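 Calcium-influx readout: Fluo4 fluorescence at 480/540 nm, normalised to positive and negative controls per plate, EC50 fitted by non-linear regression. Cells were HEK-293 Trex stable lines, channel expression induced overnight with 0.5 ug/mL doxycycline; tested at 20 micromolar down to 6 nanomolar final, half-log steps, triplicate.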

TRPML3 = target: T2, TRPML3 (Homo sapiens, UniProt Q8TDD5); experiment: Fluorescent TRPML3 assay (performed as for TRPML1, substituting the TRPML3 subtype)
T2 construct: expressed in transfected cells
T2 sequence (Q8TDD5 1-553): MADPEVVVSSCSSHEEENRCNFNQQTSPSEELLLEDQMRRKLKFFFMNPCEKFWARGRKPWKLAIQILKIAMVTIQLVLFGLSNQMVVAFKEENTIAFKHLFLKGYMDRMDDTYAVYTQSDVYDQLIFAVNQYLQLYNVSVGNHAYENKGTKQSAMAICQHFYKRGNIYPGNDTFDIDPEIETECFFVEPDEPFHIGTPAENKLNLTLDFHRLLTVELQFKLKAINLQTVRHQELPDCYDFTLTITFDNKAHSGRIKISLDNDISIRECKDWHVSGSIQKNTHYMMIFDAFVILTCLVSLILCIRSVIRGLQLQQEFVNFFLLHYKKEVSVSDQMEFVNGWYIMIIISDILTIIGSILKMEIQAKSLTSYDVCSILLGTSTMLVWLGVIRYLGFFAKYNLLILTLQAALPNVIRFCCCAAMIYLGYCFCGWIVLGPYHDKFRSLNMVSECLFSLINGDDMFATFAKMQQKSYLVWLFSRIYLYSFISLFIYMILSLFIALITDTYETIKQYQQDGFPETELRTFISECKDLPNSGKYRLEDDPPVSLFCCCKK
How it was run: as §1

Chain of TRPML1 (Q9GZU1 whole entry L15A/L16A/L577A/L578A, form open): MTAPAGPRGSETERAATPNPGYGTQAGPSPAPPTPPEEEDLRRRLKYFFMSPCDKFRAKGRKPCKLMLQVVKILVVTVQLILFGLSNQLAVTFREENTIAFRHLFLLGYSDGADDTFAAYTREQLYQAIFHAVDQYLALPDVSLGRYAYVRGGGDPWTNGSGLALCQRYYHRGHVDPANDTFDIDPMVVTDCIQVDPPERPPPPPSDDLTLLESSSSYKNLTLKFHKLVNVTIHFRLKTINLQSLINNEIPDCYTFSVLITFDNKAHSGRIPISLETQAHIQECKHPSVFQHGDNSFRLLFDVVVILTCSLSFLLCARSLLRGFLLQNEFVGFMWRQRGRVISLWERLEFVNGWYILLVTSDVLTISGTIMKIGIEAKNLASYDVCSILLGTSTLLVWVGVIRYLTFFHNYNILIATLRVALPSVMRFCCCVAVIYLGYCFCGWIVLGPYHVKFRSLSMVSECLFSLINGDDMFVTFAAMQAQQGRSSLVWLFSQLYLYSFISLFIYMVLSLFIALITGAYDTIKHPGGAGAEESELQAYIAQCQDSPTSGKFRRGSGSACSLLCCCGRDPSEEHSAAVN

SMILES: C[C@H]1CN(C(=O)OC(C)(C)C)CCN1c1ncnc2c1c(C1=CCOCC1)cn2-c1cccc(F)c1 [Compound 472, tert-butyl (S)-4-(5-(3,6-dihydro-2H-pyran-4-yl)-7-(3-fluorophenyl)-7H-pyrrolo[2,3-d]pyrimidin-4-yl)-3-methylpiperazine-1-carboxylate]
- EC50 (TRPML1; fluorescent calcium assay): 100 to 500 nM
- EC50 (TRPML2; fluorescent calcium assay): 500 to 2000 nM
- EC50 (TRPML3; fluorescent calcium assay): 100 to 500 nM

SMILES: C[C@H]1CN(C(=O)OC(C)(C)C)CCN1c1ncnc2c1c(-c1ncccn1)cn2-c1cccc(Cl)c1 [Compound 116, tert-butyl (S)-4-(7-(3-chlorophenyl)-5-(pyrimidin-2-yl)-7H-pyrrolo[2,3-d]pyrimidin-4-yl)-3-methylpiperazine-1-carboxylate]
- EC50 (TRPML1; fluorescent calcium assay): 100 to 500 nM
- EC50 (TRPML2; fluorescent calcium assay): 500 to 2000 nM
- EC50 (TRPML3; fluorescent calcium assay): 100 to 500 nM

SMILES: Cc1nccnc1-c1cn(-c2cc(F)cc(F)c2)c2ncnc(N3CCN(C(=O)OC(C)(C)CF)[C@H](C)C3)c12 [Compound 250, 1-fluoro-2-methylpropan-2-yl (R)-4-(7-(3,5-difluorophenyl)-5-(3-methylpyrazin-2-yl)-7H-pyrrolo[2,3-d]pyrimidin-4-yl)-2-methylpiperazine-1-carboxylate]
- EC50 (TRPML1; fluorescent calcium assay): 500 to 2000 nM
- EC50 (TRPML2; fluorescent calcium assay): > 2000 nM
- EC50 (TRPML3; fluorescent calcium assay): 100 to 500 nM

SMILES: CC1CN(C(=O)OC(C)(C)C)CCN1c1nccc2c1c(-c1cnccn1)cn2-c1cccc(Cl)c1 (stereo not drawn) [Compound 190, tert-Butyl 4-(1-(3-chlorophenyl)-3-(pyrazin-2-yl)-1H-pyrrolo[3,2-c]pyridin-4-yl)-3-methylpiperazine-1-carboxylate]
- EC50 (TRPML1; fluorescent calcium assay): 500 to 2000 nM
- EC50 (TRPML2; fluorescent calcium assay): 500 to 2000 nM
- EC50 (TRPML3; fluorescent calcium assay): 100 to 500 nM

SMILES: C[C@H]1CN(C(=O)OC(C)(C)C)CCN1c1ncnc2c1c(N1CCCC1)cn2-c1cc(F)cc(F)c1 [Compound 253, tert-butyl (S)-4-(7-(3,5-difluorophenyl)-5-(pyrrolidin-1-yl)-7H-pyrrolo[2,3-d]pyrimidin-4-yl)-3-methylpiperazine-1-carboxylate]
- EC50 (TRPML1; fluorescent calcium assay): < 100 nM
- EC50 (TRPML2; fluorescent calcium assay): 100 to 500 nM
- EC50 (TRPML3; fluorescent calcium assay): < 100 nM

SMILES: C[C@@H]1CN(c2ncnc3c2c(N2CCCC2)cn3-c2cc(F)cc(F)c2)CCN1C(=O)OC(C)(C)C [Compound 245, tert-butyl (R)-4-(7-(3,5-difluorophenyl)-5-(pyrrolidin-1-yl)-7H-pyrrolo[2,3-d]pyrimidin-4-yl)-2-methylpiperazine-1-carboxylate]
- EC50 (TRPML1; fluorescent calcium assay): 100 to 500 nM
- EC50 (TRPML2; fluorescent calcium assay): 500 to 2000 nM
- EC50 (TRPML3; fluorescent calcium assay): 100 to 500 nM

SMILES: Cc1nccnc1-c1cn(-c2cc(F)cc(F)c2)c2ncnc(N3CCN(C(=O)OC(C)C)[C@H](C)C3)c12 [Compound 251, isopropyl (R)-4-(7-(3,5-difluorophenyl)-5-(3-methylpyrazin-2-yl)-7H-pyrrolo[2,3-d]pyrimidin-4-yl)-2-methylpiperazine-1-carboxylate]
- EC50 (TRPML1; fluorescent calcium assay): > 2000 nM
- EC50 (TRPML2; fluorescent calcium assay): > 2000 nM
- EC50 (TRPML3; fluorescent calcium assay): 500 to 2000 nM

SMILES: C[C@H]1CN(C(=O)OC(C)(C)C)CCN1c1ncnc2c1c(-n1cccn1)cn2-c1cccc(Cl)c1 [Compound 322, tert-butyl (S)-4-(7-(3-chlorophenyl)-5-(1H-pyrazol-1-yl)-7H-pyrrolo[2,3-d]pyrimidin-4-yl)-3-methylpiperazine-1-carboxylate]
- EC50 (TRPML1; fluorescent calcium assay): 100 to 500 nM
- EC50 (TRPML2; fluorescent calcium assay): 500 to 2000 nM
- EC50 (TRPML3; fluorescent calcium assay): < 100 nM

SMILES: C[C@@H]1CN(c2ncnc3c2c(CC(F)(F)F)cn3-c2nccc(C#N)n2)[C@@H](C)CN1C(=O)OC(C)(C)C [Compound 617, tert-butyl (2R,5S)-4-(7-(4-cyanopyrimidin-2-yl)-5-(2,2,2-trifluoroethyl)-7H-pyrrolo[2,3-d]pyrimidin-4-yl)-2,5-dimethylpiperazine-1-carboxylate]
- EC50 (TRPML1): < 100 nM
- EC50 (TRPML2): > 2000 nM
- EC50 (TRPML3): 100 to 500 nM

SMILES: C[C@@H]1CN(c2ncnc3c2c(C(F)(F)F)cn3-c2cc(F)ccn2)[C@@H](C)CN1C(=O)OC1(C)CC1 [Compound 659, 1-methylcyclopropyl (2R,5S)-4-(7-(4-fluoropyridin-2-yl)-5-(trifluoromethyl)-7H-pyrrolo[2,3-d]pyrimidin-4-yl)-2,5-dimethylpiperazine-1-carboxylate]
- EC50 (TRPML1): < 100 nM
- EC50 (TRPML2): > 2000 nM
- EC50 (TRPML3): 100 to 500 nM

SMILES: C[C@H]1CN(C(=O)OC(C)(C)C)CCN1c1ncnc2c1c(C1CCC1)cn2-c1cc(C#N)ccn1 [Compound 333]
- EC50 (TRPML1; fluorescent calcium assay): < 100 nM
- EC50 (TRPML2; fluorescent calcium assay): < 100 nM
- EC50 (TRPML3; fluorescent calcium assay): < 100 nM

SMILES: C[C@@H]1CN(c2ncnc3c2c(N2CCC(F)(F)C2)cn3-c2cccc(Cl)c2)CCN1C(=O)OC(C)(C)C [Compound 300, tert-butyl (R)-4-(7-(3-chlorophenyl)-5-(3,3-difluoropyrrolidin-1-yl)-7H-pyrrolo[2,3-d]pyrimidin-4-yl)-2-methylpiperazine-1-carboxylate]
- EC50 (TRPML1; fluorescent calcium assay): < 100 nM
- EC50 (TRPML2; fluorescent calcium assay): 500 to 2000 nM
- EC50 (TRPML3; fluorescent calcium assay): < 100 nM

SMILES: Cc1cn(-c2cccc(C(F)(F)F)c2)c2ncnc(N3CCN(C(=O)OC(C)(C)C)C[C@@H]3C)c12 [Compound 684, tert-butyl (S)-3-methyl-4-(5-methyl-7-(3-(trifluoromethyl)phenyl)-7H-pyrrolo[2,3-d]pyrimidin-4-yl)piperazine-1-carboxylate]
- EC50 (TRPML1): < 100 nM
- EC50 (TRPML2): < 100 nM
- EC50 (TRPML3): < 100 nM

SMILES: COc1cccc(-n2cc(C3CC3)c3c(N4CCN(C(=O)OC(C)(C)C)C[C@@H]4C)ncnc32)c1 [Compound 202, tert-butyl (S)-4-(5-cyclopropyl-7-(3-methoxyphenyl)-7H-pyrrolo[2,3-d]pyrimidin-4-yl)-3-methylpiperazine-1-carboxylate]
- EC50 (TRPML1; fluorescent calcium assay): 100 to 500 nM
- EC50 (TRPML2; fluorescent calcium assay): 500 to 2000 nM
- EC50 (TRPML3; fluorescent calcium assay): 100 to 500 nM

SMILES: C[C@@H]1CN(c2ncnc3c2c(C2CC2)cn3-c2cccc(Cl)c2)[C@@H](C)CN1C(=O)OC1(C)CC1 [Compound 654, 1-methylcyclopropyl (2R,5S)-4-(7-(3-chlorophenyl)-5-cyclopropyl-7H-pyrrolo[2,3-d]pyrimidin-4-yl)-2,5-dimethylpiperazine-1-carboxylate]
- EC50 (TRPML1): 100 to 500 nM
- EC50 (TRPML2): > 2000 nM
- EC50 (TRPML3): < 100 nM

SMILES: C[C@@H]1CN(C(=O)OC(C)(C)C)CCN1c1ncnc2c1c(C1CC1)cn2-c1cccc(OC(F)(F)F)c1 [Compound 195, tert-butyl (R)-4-(5-cyclopropyl-7-(3-(trifluoromethoxy)phenyl)-7H-pyrrolo[2,3-d]pyrimidin-4-yl)-3-methylpiperazine-1-carboxylate]
- EC50 (TRPML1; fluorescent calcium assay): 100 to 500 nM
- EC50 (TRPML2; fluorescent calcium assay): 100 to 500 nM
- EC50 (TRPML3; fluorescent calcium assay): < 100 nM

SMILES: COc1cncc(-n2cc(-c3ccccc3F)c3c(N4CCN(C(=O)OC(C)(C)C)CC4)ncnc32)c1 [Compound 103, tert-butyl 4-(5-(2-fluorophenyl)-7-(5-methoxypyridin-3-yl)-7H-pyrrolo[2,3-d]pyrimidin-4-yl)piperazine-1-carboxylate]
- EC50 (TRPML1; fluorescent calcium assay): 100 to 500 nM
- EC50 (TRPML2; fluorescent calcium assay): 500 to 2000 nM
- EC50 (TRPML3; fluorescent calcium assay): 100 to 500 nM

SMILES: CC(C)(C)OC(=O)N1CCN(c2ncnc3c2c(C2CC2)cn3-c2cc(F)cc(F)c2)C[C@@H]1CF (single isomer, unassigned) [Compound 270]
- EC50 (TRPML1; fluorescent calcium assay): 500 to 2000 nM
- EC50 (TRPML2; fluorescent calcium assay): > 2000 nM
- EC50 (TRPML3; fluorescent calcium assay): 100 to 500 nM

SMILES: Cc1ccc(Cl)cc1-n1cc(-c2ccccn2)c2c(N3CCN(C(=O)OC(C)(C)C)CC3C)ncnc21 (stereo not drawn) [Compound 159, tert-butyl 4-(7-(5-chloro-2-methylphenyl)-5-(pyridin-2-yl)-7H-pyrrolo[2,3-d]pyrimidin-4-yl)-3-methylpiperazine-1-carboxylate]
- EC50 (TRPML1; fluorescent calcium assay): 100 to 500 nM
- EC50 (TRPML2; fluorescent calcium assay): 100 to 500 nM
- EC50 (TRPML3; fluorescent calcium assay): 100 to 500 nM
